Laboratory results reported in US20110243854A1, “Methods and systems for identifying modulators of longevity” (The Regents of the University of California, priority 2007, published 2011).
“Also recorded” adds a separate entry of the source.

Assays:
[1] = test system: flies with reduced life span due to Cu/ZnSOD and MnSOD deficiency; conditions: Cu/ZnSOD and MnSOD deficient flies; cited from earlier work
[2] = test system: wild-type flies; conditions: cited from earlier work
[3] = test system: NF1^P1/P2 flies; test: Longevity assay, NF1 mutant flies fed catalytic antioxidants; type: in vivo, Drosophila melanogaster; conditions: for increase in survivorship: NF1^P1/P2 flies fed the antioxidant; for effect on life span of NF1 mutant flies (in words): feeding 10 μM, NF1^P1/P2 males and females
Description: Life spans were determined at 25° C. and 50% humidity with a 12-h light/dark cycle. Male and female flies were collected under brief CO2 anesthesia 2 to 3 d after eclosion, allowing time for mating. The number of deceased flies was recorded every 2 to 3 d, when flies were transferred to fresh cornmeal agar medium. Both Statview 5.0 and Prism GraphPad software were used for survival data and mortality curves analysis. Survival data were analyzed by Kaplan-Meier analysis in Statview 5.0. The log-rank (Mantel-Cox) test results are presented. Censored data were recorded and analyzed with GraphPad software.
(§1) MnTBAP (Oxis) and MnTDEIP (Aeolus Pharmaceuticals) were dissolved in PBS (Mediatech) before further dilution with cornmeal food to make desired concentration. Red food dye (six drops per 500 ml food) was added to the food to ensure homogeneity.

[4] = test system: NF1^P1/P2 mutants; test: Locomotive (up-climbing) recovery after heat stress, antioxidant-fed NF1 mutants; type: in vivo, Drosophila melanogaster; conditions: 20 min 37° C. heat stress
Description: Locomotive assays were performed on 3- to 4-d-old flies. Flies were placed in 90 mm×20 mm vertical tubes containing a small quantity of cornmeal food at the bottom with a line drawn horizontally 10 mm from the base. Every 5 min, the vials were tapped until the flies were at the bottom of the vials. Then, flies were given 15 s to climb (up-climbing behavior) toward the top of the vial, and the numbers of flies above the 10 mm line were recorded. The locomotive index is the percentage of flies that climbed up after 15 s. After 30 min of baseline recording at 22° C., flies were subjected to a brief 20-min heat treatment at 37° C. and were then returned to 22° C. for recovery. The locomotive index was then plotted against time over the course of the experiment to determine the recovery time (τ).
as §1

[5] = test system: mitochondrial ROS production; conditions: cited from earlier work
[6] = test system: w^1118 flies; test: Longevity assay, w^1118 flies fed cAMP analogs; type: in vivo, Drosophila melanogaster
Description: Male and female flies were collected under brief CO2 anesthesia 2 to 3 d after eclosion, allowing time for mating. The number of deceased flies was recorded every 2 to 3 d, when flies were transferred to fresh cornmeal agar medium. Both Statview 5.0 and Prism GraphPad software were used for survival data and mortality curves analysis. Survival data were analyzed by Kaplan-Meier analysis in Statview 5.0. The log-rank (Mantel-Cox) test results are presented. […] The stock solutions were subsequently diluted into food to make the specific concentrations of 1 μM and 10 μM. Red food dye (six drops per 500 ml food) was added to the supplemented food to insure homogeneity.

Compound | effect on life span (in words) [1] | effect on life span (in words) [2] | increase in survivorship [3] | effect on life span of NF1 mutant flies (in words) [3] | recovery of locomotive performance after heat stress (in words) [4] | further results
[Cl-].[Mn+3].[O-]c1ccccc1C=NCCN=Cc1ccccc1[O-] [EUK-8, manganese N,N′-bis(salicyidene) ethylenediamine chloride] | partially restored normal life span | shortened their life spans |  |  |  | 
COC1=C(OC)C(=O)C(CCCCCCCCCC[P+](c2ccccc2)(c2ccccc2)c2ccccc2)=C(C)C1=O [MitoQ] | partially restored normal life span | shortened their life spans |  |  |  | 
O=C(O)c1ccc(-c2c3nc(c(-c4ccc(C(=O)O)cc4)c4ccc([n-]4)c(-c4ccc(C(=O)O)cc4)c4nc(c(-c5ccc(C(=O)O)cc5)c5ccc2[n-]5)C=C4)C=C3)cc1.[Mn+3] [MnTBAP, Mn(III)tetrakis(4-benzoic acid) porphyrin] |  |  | approximately 50% | restores normal life span; also recorded: extended | enhanced the recovery rate of locomotive performance; also recorded: rescued delayed heat stress recovery time | mitochondrial ROS production and oxidative damage (in words) [5]: reduce mitochondrial ROS production and oxidative damage
CCCC(=O)Nc1ncnc2c1ncn2[C@@H]1O[C@@H]2COP(=O)(O)O[C@H]2[C@H]1OC(=O)CCC [db-cAMP, dibutyryl-cAMP] |  |  |  |  |  | increase in median life span ([6]; adult males fed 1 μM or 10 μM): 30%; increase in life span ([6]; females fed 1 μM): 60%; increase in life span ([6]; females fed 10 μM): > 100%; effect on life span of w^1118 flies (in words) ([6]; male and female w^1118 flies, 1 μM and 10 μM in food): extends life spans
tetrakis(1,3-diethyl imidazolium-2-yl) meso-substituted manganoporphyrin [MnTDEIP] |  |  | approximately 50% | extended | enhanced the recovery rate of locomotive performance; also recorded: rescued delayed heat stress recovery time | 
